Assay results taken from PubChem BioAssay AID1918937 (Molecular Pharmacology Branch, DTP, NCI, 2023).
pIC50: −log10 of the molar value.

Test system: 521955-158-R2-J5-PDC complex spheroid viability
Assay: Anticancer human tumor 521955-158-R2-J5-PDC patient-derived pancreatic carcinoma cell line growth inhibition
Conditions: for pIC50: curve of first compound; for viability, T/C: stronger effect = lower value
Summary of the method: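 Complex spheroids of tumor cells with HUVEC and human MSCs, exposed to iadademstat combined with other agents. Each agent tested in half-log steps from near clinical Cmax (else 10 microM top), DMSO ≤0.25%.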

[1] = second compound 0.1 µM, first compound 0.0316 µM
[2] = second compound 0.1 µM, first compound 0.1 µM
[3] = second compound 0.316 µM, first compound 0.0316 µM
[4] = second compound 0.316 µM, first compound 0.1 µM
[5] = second compound 1 µM, first compound 0.0316 µM
[6] = second compound 1 µM, first compound 0.1 µM
[7] = second compound 3.16 µM, first compound 0.0316 µM
[8] = second compound 3.16 µM, first compound 0.1 µM
[9] = second compound 10 µM, first compound 0.0316 µM
[10] = second compound 10 µM, first compound 0.1 µM
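Also: spheroids exposed to agents for seven days.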
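For viability, T/C in this document: percent of DMSO vehicle control luminescence viability.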

CC1(C)CCC(CN2CCN(c3ccc(C(=O)NS(=O)(=O)c4ccc(NCC5CCOCC5)c([N+](=O)[O-])c4)c(Oc4cnc5[nH]ccc5c4)c3)CC2)=C(c2ccc(Cl)cc2)C1 + NC1CC1c1ccc(-c2cccc(O)c2)cc1
pIC50 (second compound 0.1 µM): 5.40 | pIC50 (second compound 0.316 µM): 5.41 | pIC50 (second compound 1 µM): 5.41 | pIC50 (second compound 3.16 µM): 5.39 | pIC50 (second compound 10 µM): 5.41 | viability, T/C [1]: 93.2% | viability, T/C [2]: 86% | viability, T/C (second compound 0.1 µM, first compound 0.316 µM): 95.6% | viability, T/C (second compound 0.1 µM, first compound 1 µM): 92.8% | viability, T/C (second compound 0.1 µM, first compound 3.16 µM): 62.4% | viability, T/C (second compound 0.1 µM, first compound 10 µM): 0.69% | viability, T/C [3]: 81.4% | viability, T/C [4]: 93.3% | viability, T/C (second compound 0.316 µM, first compound 0.316 µM): 91.6% | viability, T/C (second compound 0.316 µM, first compound 1 µM): 84.6% | viability, T/C (second compound 0.316 µM, first compound 3.16 µM): 60.4% | viability, T/C (second compound 0.316 µM, first compound 10 µM): 1.04% | viability, T/C [5]: 82% | viability, T/C [6]: 92.6% | viability, T/C (second compound 1 µM, first compound 0.316 µM): 96.4% | viability, T/C (second compound 1 µM, first compound 1 µM): 86.9% | viability, T/C (second compound 1 µM, first compound 3.16 µM): 61% | viability, T/C (second compound 1 µM, first compound 10 µM): 0.96% | viability, T/C [7]: 87.9% | viability, T/C [8]: 89.4% | viability, T/C (second compound 3.16 µM, first compound 0.316 µM): 99.4% | viability, T/C (second compound 3.16 µM, first compound 1 µM): 90.2% | viability, T/C (second compound 3.16 µM, first compound 3.16 µM): 63.7% | viability, T/C (second compound 3.16 µM, first compound 10 µM): 1.07% | viability, T/C [9]: 98.4% | viability, T/C [10]: 103% | viability, T/C (second compound 10 µM, first compound 0.316 µM): 107% | viability, T/C (second compound 10 µM, first compound 1 µM): 86.6% | viability, T/C (second compound 10 µM, first compound 3.16 µM): 61.2% | viability, T/C (second compound 10 µM, first compound 10 µM): 0.78%

Cn1ncnc1C1c2n[nH]c(=O)c3cc(F)cc(c23)NC1c1ccc(F)cc1 (stereo not given) + NC1CC1c1ccc(-c2cccc(O)c2)cc1
pIC50 (second compound 0.1 µM): < 7.00 | pIC50 (second compound 0.316 µM): < 7.00 | pIC50 (second compound 1 µM): < 7.00 | pIC50 (second compound 3.16 µM): < 7.00 | pIC50 (second compound 10 µM): < 7.00 | viability, T/C (second compound 0.1 µM, first compound 0.000316 µM): 91.4% | viability, T/C (second compound 0.1 µM, first compound 0.001 µM): 89.3% | viability, T/C (second compound 0.1 µM, first compound 0.00316 µM): 92.2% | viability, T/C (second compound 0.1 µM, first compound 0.01 µM): 80.4% | viability, T/C [1]: 77.3% | viability, T/C [2]: 76.2% | viability, T/C (second compound 0.316 µM, first compound 0.000316 µM): 91.5% | viability, T/C (second compound 0.316 µM, first compound 0.001 µM): 100% | viability, T/C (second compound 0.316 µM, first compound 0.00316 µM): 92.9% | viability, T/C (second compound 0.316 µM, first compound 0.01 µM): 88.8% | viability, T/C [3]: 83% | viability, T/C [4]: 78.9% | viability, T/C (second compound 1 µM, first compound 0.000316 µM): 82% | viability, T/C (second compound 1 µM, first compound 0.001 µM): 83.8% | viability, T/C (second compound 1 µM, first compound 0.00316 µM): 93.1% | viability, T/C (second compound 1 µM, first compound 0.01 µM): 91.8% | viability, T/C [5]: 94.9% | viability, T/C [6]: 81.1% | viability, T/C (second compound 3.16 µM, first compound 0.000316 µM): 94.9% | viability, T/C (second compound 3.16 µM, first compound 0.001 µM): 103% | viability, T/C (second compound 3.16 µM, first compound 0.00316 µM): 101% | viability, T/C (second compound 3.16 µM, first compound 0.01 µM): 95% | viability, T/C [7]: 89% | viability, T/C [8]: 84.5% | viability, T/C (second compound 10 µM, first compound 0.000316 µM): 97.8% | viability, T/C (second compound 10 µM, first compound 0.001 µM): 96.1% | viability, T/C (second compound 10 µM, first compound 0.00316 µM): 108% | viability, T/C (second compound 10 µM, first compound 0.01 µM): 94.4% | viability, T/C [9]: 90.2% | viability, T/C [10]: 87.7%

NS(=O)(=O)OCC1CC(n2ccc3c(NC4CCc5ccccc54)ncnc32)CC1O (stereo not given) + NC1CC1c1ccc(-c2cccc(O)c2)cc1
pIC50 (second compound 0.1 µM): 7.18 | pIC50 (second compound 0.316 µM): 7.20 | pIC50 (second compound 1 µM): 7.28 | pIC50 (second compound 3.16 µM): 7.27 | pIC50 (second compound 10 µM): 7.39 | viability, T/C (second compound 0.1 µM, first compound 0.00949 µM): 96.4% | viability, T/C (second compound 0.1 µM, first compound 0.03 µM): 72.8% | viability, T/C (second compound 0.1 µM, first compound 0.0949 µM): 38.5% | viability, T/C (second compound 0.1 µM, first compound 0.3 µM): 22.4% | viability, T/C (second compound 0.1 µM, first compound 0.949 µM): 16.1% | viability, T/C (second compound 0.1 µM, first compound 3 µM): 11% | viability, T/C (second compound 0.316 µM, first compound 0.00949 µM): 117% | viability, T/C (second compound 0.316 µM, first compound 0.03 µM): 71.1% | viability, T/C (second compound 0.316 µM, first compound 0.0949 µM): 38.3% | viability, T/C (second compound 0.316 µM, first compound 0.3 µM): 21.7% | viability, T/C (second compound 0.316 µM, first compound 0.949 µM): 17.4% | viability, T/C (second compound 0.316 µM, first compound 3 µM): 12.3% | viability, T/C (second compound 1 µM, first compound 0.00949 µM): 111% | viability, T/C (second compound 1 µM, first compound 0.03 µM): 62.5% | viability, T/C (second compound 1 µM, first compound 0.0949 µM): 37.6% | viability, T/C (second compound 1 µM, first compound 0.3 µM): 21.2% | viability, T/C (second compound 1 µM, first compound 0.949 µM): 16.7% | viability, T/C (second compound 1 µM, first compound 3 µM): 11.5% | viability, T/C (second compound 3.16 µM, first compound 0.00949 µM): 120% | viability, T/C (second compound 3.16 µM, first compound 0.03 µM): 63.6% | viability, T/C (second compound 3.16 µM, first compound 0.0949 µM): 38.1% | viability, T/C (second compound 3.16 µM, first compound 0.3 µM): 21.3% | viability, T/C (second compound 3.16 µM, first compound 0.949 µM): 17.7% | viability, T/C (second compound 3.16 µM, first compound 3 µM): 14.1% | viability, T/C (second compound 10 µM, first compound 0.00949 µM): 83.7% | viability, T/C (second compound 10 µM, first compound 0.03 µM): 54.5% | viability, T/C (second compound 10 µM, first compound 0.0949 µM): 37.5% | viability, T/C (second compound 10 µM, first compound 0.3 µM): 23.9% | viability, T/C (second compound 10 µM, first compound 0.949 µM): 21% | viability, T/C (second compound 10 µM, first compound 3 µM): 16%
